According to patent US20150182583A1, “METHODS FOR TREATMENT AND PREVENTION OF TAUOPATHIES BY INHIBITING ENDOTHELIN RECEPTORS” (Board of Regents, The University of Texas System, priority 2012, published 2015):
Entries after “also recorded” stand apart in the source; their conditions may differ. Non-standard residues stand in square brackets, D forms with d. Residues, ends and D or L forms follow the SMILES beside them. dGly(5-dibenzosuberyl) = N[C@@H](C(=O)O)C1c2ccccc2CCc2ccccc21

Tests used:
[1] = tested on: TAU; test: Mouse model of chemo-brain (paclitaxel or TMZ), TAU immunohistochemistry; assay type: in vivo; settings: for TAU production/expression in brain caused by the chemotherapeutic: mice bearing brain cancer (LN229 GBM) or normal mice, paclitaxel 8 mg/kg i.p. twice per week, TMZ 7.5 mg/kg p.o. daily
Method: The following methods were used to test for the in vivo effect of a dual endothelin receptor on a mouse model of chemo-brain. PD145065: SIGMA (SCP0143, 5 mg) was reconstituted in PBS containing 0.1% BSA. Temozolomide (TMZ): SIGMA (T2577-100 MG), was reconstituted in DMSO (10 mg/mL) with sonication and diluted in HBSS before treatment TAXOL (paclitaxel): Hospira (NDC 61703-342-09, 6 mg/mL) was diluted in saline before treatment. Mice were treated for 6 weeks with either TMZ (7.5 mg/kg, p.o., daily) or paclitaxel (8 mg/kg, i.p., twice per week) with or without PD145065 (10 mg/kg, i.p., daily). Treatment groups were as follows:
Mice were euthanized and the brains were collected and frozen (OCT) or placed in formalin and embedded in paraffin and then processed for IHC. Female nude mice were treated with Taxol (8 mg/kg) i.p. twice per week for six weeks. […] Female nude mice were treated orally with 7.5 mg/kg TMZ every day for six weeks.

[2] = tested on: ET-1 stimulated astrocytes; test: Real-time PCR of APOE/TAU mRNA in ET-1 stimulated astrocytes; assay type: cell-based, murine; settings: ET-1 (100 nM) 24 hr; PD145065 (1 μM) added 2 hrs prior to ET-1; FIG. 12
Method: FIG. 12: Expression level of APOE and TAU expression level in control astrocytes and astrocytes treated with BQ123 plus […] or PD145065. Treatment groups were as follows: Control, ET-1 (100 nM), ET-1+BQ123/BQ788 (1 μM), ET-1+PD145065 (1 μM). Cells were treated with ET-1 for 24 hr. BQ123, BQ788 or PD145065 was added 2 hrs prior to ET-1 stimulation.
(§1) To determine whether ETs upregulation in astrocytes culture with tumor cells, we performed in vitro coculture experiments. Astrocytes and NIH 3T3 fibroblasts were transfected with green fluorescent protein (GFP) genes. […] RT-PCR was performed using TaqMan® Universal PCR MasterMix and quantified with an ABI 7500 real time PCR system (Applied Biosystems, Foster City, Calif.). […] Relative mRNA expression was calculated according to the AACt method, and expressed as mean±S.D. of mRNA relative to that of control.
as §1, with “Astrocytes” for “To determine whether ETs upregulation in astrocytes culture with tumor cells, we performed in vitro coculture experiments. Astrocytes”, “method” for “method,”

[3] = tested on: MDA231; test: Tumor cell-astrocyte protection assay (MDA231 protection assay); assay type: cell-based, human; settings: FIG. 15
[4] = tested on: ETA and ETB receptors; test: Immunohistochemistry of endothelin receptor phosphorylation (with the protection assay); assay type: cell-based; settings: FIG. 15
Text: Next the inventor used the compound PD 145065, which is a dual endothelin receptor inhibitor (antagonist), in further experiments. […] PD145065 may be administered orally to mice. Based on the in vitro data, it is anticipated that PD145065 may be used to decrease TAU in the brain in vivo.

[5] = tested on: TAU; test: Mouse model of brain trauma (parenchymal wound), TAU immunofluorescent staining; assay type: in vivo; settings: 10 mg/kg/day i.p. for 5 days prior to wounding, continued 3 days after; brains harvested 3 days after wounding
Text: Brain parenchymal wound was created by inserting a needle (32 G-21 G) by stereotactic injection unit. In brief, a mouse was anesthetized with Nembutal ([…]) and fixed in the stereotactic injection unit. Skin incision was made in the forehead and a hole was made in the calvaria with a 21 G needle. Injection needle was inserted into the brain parenchyma (4-mm depth) and withdrawn. Hole was blocked with bone wax and skin incision was closed with skin staples.
(§2) A mouse model of brain trauma was used to evaluate the effect of a dual endothelin receptor antagonist (PD 145065) on TAU expression after a brain trauma. A parenchyma mouse model of brain trauma was used such that mice received a stereotaxically administered wound to the brain Immunochemistry was performed on brain samples to evaluate GFAP and TAU expression.
(§3) The mice were euthanatized 1, 2, or 4 days after creating the wound in the brain parenchyma. The brains were removed, fixed in formalin and stained for GFAP or (GFAP and TAU) using immunofluorescent staining.
(§4) Mice were pretreated with PD145065 10 mg/kg/day i.p. injection for 5 days prior to brain wounding. Control mice received saline injections. Treatment continued for 3 days after wounding. The brains were harvested 3 days after wounding and immunofluorescent staining immunohistochemistry experiments were performed.

[6] = tested on: endothelin receptors A and B; test: Mouse model of brain trauma, endothelin receptor phosphorylation; assay type: in vivo; settings: 10 mg/kg/day i.p. for 5 days prior to wounding, continued 3 days after
[7] = tested on: GFAP; test: Mouse model of brain trauma, GFAP staining; assay type: in vivo; settings: 10 mg/kg/day i.p. for 5 days prior to wounding, continued 3 days after
Method: as §2, §3, §4

[8] = tested on: TAU; test: Chronic hypoxia (hypoxia chamber) in mice, TAU immunohistochemistry; assay type: in vivo, mouse; settings: hypoxia chamber 1-3 days; daily i.p. injections, or pretreatment 7 days before 48 hours of hypoxia
Method: (§5) Mice were placed in a sealed plexiglass chamber with controlled input of oxygen-nitrogen gas to establish an oxygen level of 5.705% oxygen. One to 3 days later, the mice are euthanized or placed in room air (normoxia). The brains are harvested, fixed in formalin, or frozen for histology/immunohistochemistry examination. Staining for GFAP (astrocytes), TAU, endothelin receptor A or B (phosphorylation) was carried out.
Mice were placed in a hypoxia chamber for 1-3 days are taken out and divided into 2 groups: (1) treated with PD145065 (dual endothelin receptor inhibitor), or (2) saline. Treatments are by daily i.p. injections. The brains of control and treated mice are harvested 2-5 days later and processed for histological examination Immunohistochemistry for GFAP, TAU, ETAR, and ETBR (phosphorylation) was carried out.
as §5, with “The following methods were used for the chronic hypoxia (hypoxia chamber) experiments. Mice” for “Mice”, “were” for “are”, “phosphorylation” for “(phosphorylation)”, “out. […]” for “out.”

[9] = Body weight of mice treated with paclitaxel with or without PD145065; assay type: in vivo, mouse
Method: Studies to evaluated prevention and/or treatment of chemo-brain by PD145065 were performed. Female athymic nude mice (NCI-nu) were used in these studies. Mice were used in these experiments in accordance with institutional guidelines when they were 14-16 weeks old. Mice were randomized as follows;
Mice showing weight loss, dehydration (poor skin tugor) or poor movement (poor oral intake, decreased ambulation, etc.) were defined as symptomatic mice.
Prevention and/or treatment of Chemo-brain by PD145065 was evaluated via the following protocol. Treatment continued for 12 weeks and treatment and prevention groups were defined as follows: […]
(1) Treatment group—mice receiving TMZ or taxol (group 3 or 4) and showing symptoms defined above for two consecutive weeks began to receive PD145065;
(3) Prevention group—mice were receiving (PD+TMZ) or (PD+taxol) for 12 weeks (group 5 or 6).

SMILES	TAU production/expression in brain caused by the chemotherapeutic [1]	TAU production/expression in brain caused by the chemotherapeutic ([1]; listed as TMZ)	APOE/TAU mRNA expression [2]	blocking the ability of astrocytes protection of tumor cells from chemotherapy [3]	phosphorylation of ETA and ETB receptors [4]	TAU expression / TAU positive cells in brain after wound [5]	phosphorylation of endothelin receptors A and B (ETAR, ETBR) in wounded brain [6]	GFAP in wounded brain [7]	TAU expression in brain resulting from hypoxia [8]	TAU expression in brain of mice treated with paclitaxel or TMZ ([1]; PD145065 10 mg/kg i.p. daily, 6 weeks, TMZ 7.5 mg/kg p.o. daily or paclitaxel 8 mg/kg i.p. twice per week)	weight loss associated with paclitaxel, prevention (co-administration) ([9]; PD 10 mg/kg i.p. daily plus taxol 8 mg/kg i.p. twice per week, FIG. 23)	weight loss associated with paclitaxel, treatment group ([9]; PD145065 given to mice receiving paclitaxel beginning on day 49, FIG. 22)	TAU production/expression in brain caused by the chemotherapeutic ([1]; listed as Taxol)	body weight of paclitaxel-treated mice ([9]; paclitaxel alone, FIG. 22)
Cn1nnc2c(C(N)=O)ncn2c1=O [temozolomide]	result in the production of TAU	high expression of TAU												
CC[C@H](C)[C@H](NC(=O)[C@H](CC(=O)O)NC(=O)[C@H](CC(C)C)NC(=O)[C@H](NC(C)=O)C1c2ccccc2CCc2ccccc21)C(=O)N[C@H](C(=O)N[C@@H](Cc1c[nH]c2ccccc12)C(=O)O)[C@@H](C)CC [PD145065, N-Acetyl-α-[10,11-Dihydro-5H-dibenzo[a,d]cycloheptadien-5-yl]-D-Gly-Leu-Asp-Ile-Ile-Trp] (Ac-[dGly(5-dibenzosuberyl)]LDIIW-OH)			observed to have an effect	as effective as the combination of BQ123 and BQ788	can prevent phosphorylation	not in brains of mice pretreated; also recorded: significantly diminished or eliminated; also recorded: negative; also recorded: reduced tau expression	inhibited phosphorylation; also recorded: reduced phosphorylation or be not phosphorylated	unchanged; also recorded: contain activated (GFAP-positive) astrocytes	inhibited TAU expression; also recorded: significantly lower than in the brains of control mice; also recorded: reduced tau expression; also recorded: significant decrease in TAU expression	significantly reduced TAU expression	completely inhibit the weight loss	reversal of the weight loss		
CC(=O)O[C@H]1C(=O)[C@@]2(C)[C@H]([C@H](OC(=O)c3ccccc3)[C@]3(O)C[C@H](OC(=O)[C@H](O)[C@@H](NC(=O)c4ccccc4)c4ccccc4)C(C)=C1C3(C)C)[C@]1(OC(C)=O)CO[C@@H]1C[C@@H]2O [paclitaxel]	result in the production of TAU												high expression of TAU	loss of weight
